ChEMBL document CHEMBL3232969, “Structure-based design and synthesis of tricyclic IAP (Inhibitors of Apoptosis Proteins) inhibitors” (Bioorg Med Chem Lett, 2014)
pIC50: −log10 of the molar value. Values after ≈ are worked out from the molar mass of the structure shown.

Key:
[1] = Aqueous solubility of the compound
[2] = Lipophilicity, log D of the compound; conditions: octanol/water
[3] = Intrinsic clearance in human liver microsomes
MDA-MB-231 = assay: Growth inhibition of human MDA-MB-231 cells; type: functional; conditions: Homo sapiens, MDA-MB-231
[4] = Percentage unbound in human plasma
[5] = molecular target: E3 ubiquitin-protein ligase XIAP (Homo sapiens, UniProt P98170); assay: Inhibition of XIAP BIR3 domain (unknown origin) by fluorescence polarization assay
[6] = molecular target: Baculoviral IAP repeat-containing protein 2 (Homo sapiens, UniProt Q13490)
Description: Inhibition of cIAP1 BIR3 domain (unknown origin) by fluorescence polarization assay

| Structure (SMILES) | solubility [1] [µM] | logD ([2]; logD) | microsomal CLint ([3]; liver microsomes, CLH) [µL/min/mg] | GI50 (MDA-MB-231) [nM] | fraction unbound ([4]; Fu) | pIC50 [5] | pIC50 [6] | microsomal CLint ([3]; microsomes, CLH) [µL/min/mg] | logD [2] | microsomal CLint ([3]; liver microsomes) [µL/min/mg] | fraction unbound [4] |
| --- | --- | --- | --- | --- | --- | --- | --- | --- | --- | --- | --- |
| CN[C@@H](C)C(=O)N[C@H]1CCC[C@H]2C[C@H]3CCN(CCc4ccccc4)C[C@H]3N2C1=O | > 1000 | 1.3 | < 4 | 320 | 0.51 |  |  |  |  |  |  |
| CN[C@@H](C)C(=O)N[C@H]1CCC[C@H]2C[C@H]3CCN(CCc4ccc(C(F)(F)F)cc4)C[C@H]3N2C1=O | > 1000 | 2.1 | 5.2 | 970 | 0.18 | < 5.00 |  |  |  |  |  |
| CN[C@@H](C)C(=O)N[C@H]1CCC[C@H]2SC(C)(C)C(C(=O)Nc3cc(C)nn3-c3ccccc3)N2C1=O (stereo partly specified) |  |  |  |  |  |  | 7.30 |  |  |  |  |
| CN[C@@H](C)C(=O)N[C@H]1CCC[C@H]2C[C@H]3CCN(CCc4ccc(Br)cc4)C[C@H]3N2C1=O | > 1000 | 2.2 | 4.7 | 28 | 0.17 |  |  |  |  |  |  |
| CN[C@@H](C)C(=O)N[C@H]1CCC[C@H]2C[C@H]3CCN(CCc4ccccc4F)C[C@H]3N2C1=O |  | 1.4 | < 4 | 96 | 0.49 |  |  |  |  |  |  |
| CN[C@@H](C)C(=O)N[C@H]1CCC[C@H]2C[C@H]3CCN(CCc4ccccc4OC)C[C@H]3N2C1=O | > 1000 | 0.9 | < 4 | 230 | 0.34 |  |  |  |  |  |  |
| CN[C@@H](C)C(=O)N[C@H]1CCC[C@H]2C[C@H]3CCN(CCc4cccc(OC)c4)C[C@H]3N2C1=O | > 1000 | 0.9 | < 4 | 670 | 0.47 |  |  |  |  |  |  |
| CN[C@@H](C)C(=O)N[C@H]1CCC[C@H]2C[C@H]3CCN(CCc4ccc(OC)cc4)C[C@H]3N2C1=O | > 1000 | 1 | < 4 | 2600 | 0.47 |  |  |  |  |  |  |
| CN[C@@H](C)C(=O)N[C@H]1CCC[C@H]2C[C@H]3CCN(CCc4ccc(O)cc4)C[C@H]3N2C1=O | > 1000 | 0.2 |  | 200 |  |  |  |  |  |  |  |
| CN[C@@H](C)C(=O)N[C@H]1CCC[C@H]2C[C@H]3CCN(CCc4ccccc4C)C[C@H]3N2C1=O | > 1000 | 1.3 | 6.8 | 370 | 0.48 |  |  |  |  |  |  |
| CN[C@@H](C)C(=O)N[C@H]1CCC[C@H]2C[C@H]3CCN(CCc4cccc(C)c4)C[C@H]3N2C1=O | > 1000 | 1.3 | 6.9 | 310 | 0.47 |  |  |  |  |  |  |
| CN[C@@H](C)C(=O)N[C@H]1CCC[C@H]2C[C@H]3CCN(CCc4ccc(C)cc4)C[C@H]3N2C1=O | > 1000 | 1.6 | < 4 | 160 | 0.32 |  |  |  |  |  |  |
| CN[C@@H](C)C(=O)N[C@H]1CCC[C@H]2C[C@H]3CCN(CCc4ccc(Cl)cc4)C[C@H]3N2C1=O | > 1000 | 1.8 | 6.6 | 340 | 0.24 |  |  |  |  |  |  |
| CN[C@@H](C)C(=O)N[C@H]1CCC[C@H]2C[C@H]3CCN(CCc4ccc(Cl)c(Cl)c4)C[C@H]3N2C1=O | > 1000 | 2.3 | 28 | 260 | 0.065 |  |  |  |  |  |  |
| CN[C@@H](C)C(=O)N[C@H]1CCC[C@H]2C[C@H]3CCN(CCc4ccc([N+](=O)[O-])cc4)C[C@H]3N2C1=O | > 1000 | 1 | < 4 | 280 | 0.47 |  |  |  |  |  |  |
| CN[C@@H](C)C(=O)N[C@H]1CCC[C@H]2C[C@H]3CCN(CCc4c[nH]c5ccccc45)C[C@H]3N2C1=O | > 1000 | 0.9 | < 4 | 490 |  |  |  |  |  |  |  |

| Structure (SMILES) | solubility [1] [µM] | logD ([2]; logD) | microsomal CLint ([3]; liver microsomes, CLH) [µL/min/mg] | GI50 (MDA-MB-231) [nM] | fraction unbound ([4]; Fu) | pIC50 [5] | pIC50 [6] | microsomal CLint ([3]; microsomes, CLH) [µL/min/mg] | logD [2] | microsomal CLint ([3]; liver microsomes) [µL/min/mg] | fraction unbound [4] |
| --- | --- | --- | --- | --- | --- | --- | --- | --- | --- | --- | --- |
| CN[C@@H](C)C(=O)N[C@H]1CCC[C@H]2C[C@H]3CCN(CCc4scnc4C)C[C@H]3N2C1=O | > 1000 | 0.3 |  | 4500 |  |  |  |  |  |  |  |
| CN[C@@H](C)C(=O)N[C@H]1CCC[C@H]2C[C@H]3CCN(CCc4ccccn4)C[C@H]3N2C1=O |  | -0.2 |  | 10000 |  | < 5.00 |  |  |  |  |  |
| CN[C@@H](C)C(=O)N[C@H]1CCC[C@H]2C[C@H]3CCN(CCC4=C(C)OCN4C)C[C@H]3N2C1=O | > 1000 | 0.1 |  |  |  | < 5.00 |  |  |  |  |  |
| CN[C@@H](C)C(=O)N[C@H]1CCC[C@H]2C[C@H]3CCN(CCc4nc5cc(C)ccc5[nH]4)C[C@H]3N2C1=O | > 1000 | 1.3 | 9.1 |  |  | < 5.00 |  |  |  |  |  |
| CN[C@@H](C)C(=O)N[C@H]1CCC[C@H]2C[C@H]3CCN(Cc4ccccc4)C[C@H]3N2C1=O | > 1000 | 0.8 | 7.1 | > 11000 | 0.52 | < 5.00 |  |  |  |  |  |
| CN[C@@H](C)C(=O)N[C@H]1CCC[C@H]2C[C@H]3CCN(CCCc4ccccc4)C[C@H]3N2C1=O |  | 1.6 |  | > 11000 | 0.47 | < 5.00 |  |  |  |  |  |
| CN[C@@H](C)C(=O)N[C@H]1CCC[C@H]2C[C@H]3CCN(CCC4CCCCC4)C[C@H]3N2C1=O | > 1000 | 1.5 | 5 | 1300 | 0.49 | < 5.00 |  |  |  |  |  |
| CN[C@@H](C)C(=O)N[C@H]1CCC[C@H]2C[C@H]3CCN(CC4CCCCC4)C[C@H]3N2C1=O |  | 0.9 | 8.9 | 2000 |  | < 5.00 |  |  |  |  |  |
| CN[C@@H](C)C(=O)N[C@H]1CCC[C@H]2C[C@H]3CCN(CC(C)C)C[C@H]3N2C1=O |  | 0.1 |  |  |  | < 5.00 |  |  |  |  |  |
| CN[C@@H](C)C(=O)N[C@H]1CCC[C@H]2C[C@H]3CCN(C(c4ccccc4)c4ccccc4)C[C@H]3N2C1=O | > 1000 | 2.7 | 14 |  | 0.049 | < 5.00 |  |  |  |  |  |
| CN[C@@H](C)C(=O)N[C@H]1CCC[C@H]2C[C@H]3CCN(C(=O)Cc4ccccc4)C[C@H]3N2C1=O | > 1000 | 0.4 | 6.5 | 320 | 0.66 |  |  |  |  |  |  |
| CN[C@@H](C)C(=O)N[C@H]1CCC[C@H]2C[C@H]3CCN(C(=O)C(c4ccccc4)c4ccccc4)C[C@H]3N2C1=O | > 1000 | 1.4 | 27 | 3000 | 0.039 |  |  |  |  |  |  |
| CN[C@@H](C)C(=O)N[C@H]1CCC[C@H]2C[C@H]3CCN(C(=O)OCc4ccccc4)C[C@H]3N2C1=O |  |  |  | > 369 | 0.42 |  |  | 20 |  |  |  |
| CN[C@@H](C)C(=O)N[C@H]1CCC[C@H]2C[C@H]3CCN(C(=O)Oc4ccccc4)C[C@H]3N2C1=O | 700 (≈ 300 µg/mL) |  |  | 910 |  |  |  |  | 0.7 | 6.3 | 0.51 |
| CN[C@@H](C)C(=O)N[C@H]1CCC[C@H]2C[C@H]3CCN(C(=O)Nc4ccccc4)C[C@H]3N2C1=O | > 1000 | 0.6 | 6.7 | 3900 | 0.62 |  |  |  |  |  |  |
| CN[C@@H](C)C(=O)N[C@H]1CCC[C@H]2C[C@H]3CCN(CC(C)c4ccccc4)C[C@H]3N2C1=O (mixture of isomers) |  | 1.4 | < 4 | 2500 | 0.18 |  | 6.74 |  |  |  |  |
